55 compounds from ChEMBL document CHEMBL1129550, “Synthesis and cyclic GMP phosphodiesterase inhibitory activity of a series of 6-phenylpyrazolo[3,4-d]pyrimidones” (J Med Chem, 1996) can be followed below.

Experiment [1] addresses T1, cGMP-specific 3',5'-cyclic phosphodiesterase (Homo sapiens, UniProt O76074). The experiment can be described thus: Inhibition of Phosphodiesterase 5 from human.
In experiment [2] the target is cGMP-specific 3',5'-cyclic phosphodiesterase (Rattus norvegicus, UniProt O54735). The experiment can be described thus: Compound was tested for inhibition of stimulation of rat aortic smooth muscle cells (RSMC). The format is functional.
In experiment [3] the target is T1, cGMP-specific 3',5'-cyclic phosphodiesterase. Description: Inhibition of Phosphodiesterase 5 from human at dose 10 uM.

Bounds are passed on as bounds.

`CCCOc1ccc(NC(=O)NCC)cc1-c1nc2c(c(C)nn2C)c(=O)[nH]1` registered an IC50 in experiment [1] of 3 nM. This compound returned a concentration giving a half-maximal response (EC50) in experiment [2] of 50 nM.

As for `CCCOc1ccc(NC(N)=S)cc1-c1nc2c(c(C)nn2C)c(=O)[nH]1`, half-maximal inhibition in experiment [1] (IC50) was put at 1 nM. The compound further gave an EC50 in experiment [2] of 1000 nM.

Turning to `CCCOc1ccc(-c2n[nH]c(-c3ccccc3)n2)cc1-c1nc2c(c(C)nn2CC)c(=O)[nH]1`, the IC50 in experiment [1] came out at 1.7 nM. The same compound gave a concentration for a half-maximal effect (EC50) in experiment [2] below 10 nM.

In turn, `CCCOc1ccccc1-c1nc(O)c2c(C)snc2n1` registered an IC50 in experiment [1] of 30 nM. The response in experiment [2] was half-maximal at 1500 nM (EC50).

`CCCOc1ccc(-c2nc(C)cs2)cc1-c1nc2c(c(C)nn2CC)c(=O)[nH]1` showed an IC50 in experiment [1] of 2 nM. In experiment [2], this compound returned an EC50 below 100 nM.

`CCCOc1ccc(N)cc1-c1nc2c(c(C)nn2C)c(=O)[nH]1` yielded an IC50 in experiment [1] of 10 nM. The compound also gave an EC50 in experiment [2] of 300 nM.

For the compound `CCCOc1ccc(NC(C)=O)cc1-c1nc2c(c(C)nn2CC)c(=O)[nH]1`, the IC50 in experiment [1] came to 2 nM. The EC50 in experiment [2] is 30 nM.

Regarding `CCCOc1ccc(NC(=O)c2ccc(F)cc2)cc1-c1nc2c(c(C)nn2C)c(=O)[nH]1`, the half-maximal inhibitory concentration (IC50) in experiment [1] amounted to 2 nM. Moreover, the concentration giving a half-maximal response (EC50) in experiment [2] is below 10 nM.

As to `CCCCn1nc(C)c2c(=O)[nH]c(-c3ccccc3OCCC)nc21`, the IC50 in experiment [1] was found to be 6 nM. The compound further registered an EC50 in experiment [2] of 900 nM.

The compound `CCCOc1ccccc1-c1nc2c(c(C)nn2Cc2ccccc2)c(=O)[nH]1` registered an IC50 in experiment [1] of 70 nM. The midpoint of the response in experiment [2], the EC50, lay at 350 nM.

As for `CCC[S+]([O-])c1ccccc1-c1nc2c(c(C)nn2C)c(=O)[nH]1` (stereo unspecified), in experiment [3], the inhibition stood at 59%.

The compound `CCCOc1ccc(C(=O)CN2CCOCC2)cc1-c1nc2c(c(C)nn2C)c(=O)[nH]1` yielded a half-maximal inhibitory concentration (IC50) in experiment [1] of 4 nM. Moreover, a half-maximal effect in experiment [2] (EC50) was put at 300 nM.

Turning to `CCCOc1ccc(-c2nccs2)cc1-c1nc2c(c(C)nn2C)c(=O)[nH]1`, in experiment [1], the IC50 turned out to be 3 nM. The EC50 in experiment [2] is below 100 nM.

As for `CCCOc1ccccc1-c1nc(O)c2ccsc2n1`, the midpoint of inhibition in experiment [1], the IC50, lay at 100 nM. Moreover, the EC50 in experiment [2] was determined as 2500 nM.

For the compound `CCCOc1ccccc1-c1nc(O)c2sccc2n1`, the IC50 in experiment [1] was determined as 50 nM. For the same compound, the 50% effective concentration (EC50) in experiment [2] came to 1000 nM.

Compound `CCCOc1ccc(-c2nc(C)cs2)cc1-c1nc2c(c(C)nn2C)c(=O)[nH]1` returned an IC50 in experiment [1] of 2.5 nM. Moreover, the midpoint of the response in experiment [2], the EC50, lay at 450 nM.

As to `CCCOc1ccccc1-c1nc2c(c(C)nn2CC)c(=O)[nH]1`, in experiment [1], the IC50 stood at 2 nM. Besides, in experiment [2], the EC50 is below 100 nM.

With `CCCOc1ccc(NC(=O)CN2CCN(C)CC2)cc1-c1nc2c(c(C)nn2C)c(=O)[nH]1`, the IC50 in experiment [1] worked out at 3.5 nM. The compound also yielded a 50% effective concentration (EC50) in experiment [2] of 400 nM.

`CCCOc1ccccc1-c1nc2ncncc2c(=O)[nH]1` showed an IC50 in experiment [1] of 300 nM. In experiment [2], this compound came in with an EC50 of 7500 nM.

In experiment [1], `CCCOc1ccccc1-c1nc2onc(C)c2c(=O)[nH]1` registered an IC50 of 100 nM. Further, the EC50 in experiment [2] is above 10000 nM.

Consider `CCOc1ccccc1-c1nc2c(c(C)nn2C)c(=O)[nH]1`, for which the IC50 in experiment [1] worked out at 30 nM. The compound further registered an EC50 in experiment [2] of 2000 nM.

In the case of `CCCOc1ccccc1-c1nc(O)c2c(C)csc2n1`, in experiment [1], the half-maximal inhibitory concentration (IC50) is 60 nM. In addition, in experiment [2], the midpoint of the response, the EC50, lay at 700 nM.

In experiment [1], `CCCOc1ccc(NS(C)(=O)=O)cc1-c1nc2c(c(C)nn2CC)c(=O)[nH]1` showed an IC50 of 4 nM. In addition, the EC50 in experiment [2] stood at 200 nM.

In experiment [2], `CCCOc1ccccc1-c1nc2nc[nH]c2c(=O)[nH]1` registered an EC50 of 2000 nM.

For the compound `CCCOc1ccc(NC(C)=O)cc1-c1nc2c(c(C)nn2C)c(=O)[nH]1`, the IC50 in experiment [1] stood at 0.8 nM. In addition, in experiment [2], the EC50 was determined as 40 nM.

`CCCOc1ccc(-c2csc(-c3ccccc3)n2)cc1-c1nc2c(c(C)nn2C)c(=O)[nH]1`: in experiment [1], the IC50 came to 2.5 nM. The response in experiment [2] was half-maximal at 200 nM (EC50).

For `CCCOc1ccc(NC(=O)c2cccs2)cc1-c1nc2c(c(C)nn2C)c(=O)[nH]1`, in experiment [1], the IC50 was 1.5 nM. Also, in experiment [2], the EC50 is below 10 nM.

On to `CCCOc1ccccc1-c1nc2cnccc2c(=O)[nH]1`, for which the IC50 in experiment [1] turned out to be 70 nM. In experiment [2], this compound registered an EC50 of 2000 nM.

As for `CCCOc1ccc(N(C)C)cc1-c1nc2c(c(C)nn2C)c(=O)[nH]1`, the midpoint of inhibition in experiment [1], the IC50, lay at 5 nM. Also, in experiment [2], the midpoint of the response, the EC50, lay at 300 nM.

In turn, `CCCOc1ccc(-c2csc(-c3ccccc3)n2)cc1-c1nc2c(c(C)nn2CC)c(=O)[nH]1` registered an IC50 in experiment [1] of 3 nM. In experiment [2], this compound returned an EC50 of 200 nM.

Turning to `CCCOc1ccc(-c2cccs2)cc1-c1nc2c(c(C)nn2C)c(=O)[nH]1`, the IC50 in experiment [1] was 5 nM. In experiment [2], this compound showed an EC50 of 300 nM.

`CCCOc1ccc(-c2n[nH]c(-c3ccccc3)n2)cc1-c1nc2c(c(C)nn2C)c(=O)[nH]1` yielded an IC50 in experiment [1] of 20 nM. The compound further came in with a 50% effective concentration (EC50) in experiment [2] below 100 nM.

The compound `CCCOc1ccc(-c2csc(C)n2)cc1-c1nc2c(c(C)nn2C)c(=O)[nH]1` showed a concentration for half-maximal inhibition (IC50) in experiment [1] of 2.5 nM. In addition, in experiment [2], the EC50 was found to be 200 nM.

`CCCOc1ccc(-c2csc(-c3cccnc3)n2)cc1-c1nc2c(c(C)nn2CC)c(=O)[nH]1`: the concentration for half-maximal inhibition (IC50) in experiment [1] is 2 nM. Further, the EC50 in experiment [2] was below 100 nM.

In experiment [1], `CCCOc1ccc(-c2ccc(C)s2)cc1-c1nc2c(c(C)nn2C)c(=O)[nH]1` came in with an IC50 of 4 nM. Further, the EC50 in experiment [2] was below 100 nM.

Consider `CCCOc1ccc(NC(=O)OC)cc1-c1nc2c(c(C)nn2C)c(=O)[nH]1`, for which the half-maximal inhibitory concentration (IC50) in experiment [1] is 2 nM. In experiment [2], this compound yielded an EC50 of 100 nM.

In the case of `CCCOc1ccccc1-c1nc2c(c(C)nn2C(C)(C)C)c(=O)[nH]1`, the midpoint of inhibition in experiment [1], the IC50, lay at 20 nM. The compound further returned an EC50 in experiment [2] of 200 nM.

Consider `Cc1nn(C)c2nc(-c3ccccc3OC(C)C)[nH]c(=O)c12`, for which, in experiment [1], half-maximal inhibition (IC50) was put at 40 nM. For the same compound, in experiment [2], the concentration for a half-maximal effect (EC50) worked out at 1000 nM.

The compound `CCCOc1ccc(-c2csc(C)n2)cc1-c1nc2c(c(C)nn2CC)c(=O)[nH]1` returned an EC50 in experiment [2] below 100 nM.

Compound `CCCOc1ccccc1-c1nc2c(c(C)nn2CC(F)(F)F)c(=O)[nH]1` displayed a half-inhibitory concentration (IC50) in experiment [1] of 7 nM. In addition, the EC50 in experiment [2] turned out to be 1500 nM.

For the compound `CCCOc1ccc(NC(=O)Nc2ccc(F)cc2)cc1-c1nc2c(c(C)nn2C)c(=O)[nH]1`, in experiment [1], the IC50 came to 0.2 nM. The 50% effective concentration (EC50) in experiment [2] turned out to be 40 nM.

In experiment [1], `CCCOc1ccc(NC(N)=O)cc1-c1nc2c(c(C)nn2C)c(=O)[nH]1` came in with an IC50 of 2 nM. The compound further gave an EC50 in experiment [2] of 900 nM.

In the case of `CCCOc1ccccc1-c1nc2c(c(C)nn2CCC)c(=O)[nH]1`, in experiment [1], half-maximal inhibition (IC50) required 1 nM. In experiment [2], the EC50 came to 150 nM.

`CCCOc1ccc(Nc2nnc(N)[nH]2)cc1-c1nc2c(c(C)nn2C)c(=O)[nH]1` had an IC50 in experiment [1] of 5 nM. In experiment [2], the EC50 is above 10000 nM.

`CCCOc1ccc(N)cc1-c1nc2c(c(C)nn2CC)c(=O)[nH]1` had an IC50 in experiment [1] of 7 nM. The compound also registered a concentration for a half-maximal effect (EC50) in experiment [2] of 20 nM.

With `CCCOc1ccc([N+](=O)[O-])cc1-c1nc2c(c(C)nn2CC)c(=O)[nH]1`, inhibition in experiment [1] was half-maximal at 0.1 nM (IC50). In experiment [2], this compound had an EC50 of 50 nM.

For the compound `CCCOc1ccccc1-c1nc(O)c2c[nH]nc2n1`, half-maximal inhibition in experiment [1] (IC50) required 150 nM. In experiment [2], this compound yielded an EC50 above 10000 nM.

`CCCOc1ccccc1-c1nc(O)c2scc(C)c2n1` gave an IC50 in experiment [1] of 80 nM. For the same compound, the midpoint of the response in experiment [2], the EC50, lay at 1500 nM.

Compound `CCCOc1ccc(NS(C)(=O)=O)cc1-c1nc2c(c(C)nn2C)c(=O)[nH]1` yielded an IC50 in experiment [1] of 3 nM. The same compound displayed an EC50 in experiment [2] of 350 nM.

Turning to `CCCOc1ccccc1-c1nc2c(c(C)nn2C)c(=O)[nH]1`, in experiment [2], a half-maximal response (EC50) required 200 nM.

In the case of `CCCOc1ccccc1-c1nc2ccncc2c(=O)[nH]1`, the IC50 in experiment [1] is 50 nM. Besides, in experiment [2], it took 10000 nM to reach a half-maximal effect (EC50).

`CCCOc1ccc(NC(=S)NC(=O)OCC)cc1-c1nc2c(c(C)nn2C)c(=O)[nH]1`: the IC50 in experiment [1] is 2 nM. In addition, in experiment [2], the response was half-maximal at 40 nM (EC50).

`CCCOc1ccc(N(C)C)cc1-c1nc2c(c(C)nn2CC)c(=O)[nH]1`: the IC50 in experiment [1] was 4 nM. The same compound came in with an EC50 in experiment [2] of 1500 nM.

Turning to `CCCOc1ccc([N+](=O)[O-])cc1-c1nc2c(c(C)nn2C)c(=O)[nH]1`, in experiment [1], the IC50 turned out to be 4 nM. In experiment [2], this compound had an EC50 of 100 nM.

As to `CCCOc1ccc(NC(=S)NCC)cc1-c1nc2c(c(C)nn2C)c(=O)[nH]1`, the half-inhibitory concentration (IC50) in experiment [1] is 3 nM. In experiment [2], this compound returned a 50% effective concentration (EC50) of 60 nM.

In general, IC50 refers to the point on the concentration scale where inhibition reaches its midpoint. A low value points to greater potency in that assay. Usually EC50 stands for the concentration that produces a half-maximal response. Low readings indicate an effect from little substance, high ones a need for much substance. Broadly, the inhibition is how much of the control response was suppressed. High values mean strong suppression, low ones little suppression.
